Experimental findings from US20170014354A1, “ZEAXANTHIN FOR TUMOR TREATMENT” (The New York Eye and Ear Infirmary, priority 2012, published 2017) are described below.

What all share (type): cell-based
One series relates to COLO829. Kind of series: MTT cell viability, COLO829 cutaneous melanoma. The following applies: 48 h, vs control. On the procedure:
(§1) Each malignant tumor cell line was cultured in Dulbecco's modified Eagle's medium (DMEM, GIBCO, Carlsbad, Calif.) supplemented with 10% fetal bovine serum (FBS, GIBCO). Cells were incubated in a humidified 5% CO2 atmosphere at 37° C. After reaching confluence, cells were detached by trypsin-EDTA solution (GIBCO), diluted 1:4-1:6, plated for subculture and were passaged routinely at a dilution of 1:4-1:6 every 4-6 days.
(§2) All cell lines were tested in triplicates.

A further series has as its system HCT-15. Kind of series: MTT cell viability, HCT-15 colon cancer. The following applies: 48 h, vs control. How it is done: as §1, §2
Series [1] deals with SP6.5. Briefly: MTT cell viability, SP6.5 uveal melanoma. The following applies: vs control; for Cell viability: 48 h, MTT; for reduction of cell viabilities: FIG. 1B. On the procedure:
as §1, §2

The subject of a further series is MDA. Kind of series: MTT cell viability, MDA breast cancer. The following applies: for Cell viability: 48 h, MTT, vs control. On the procedure:
as §1, §2

Series [2] deals with SP6.5. Briefly: Phase-contrast microscopy of treated uveal melanoma cells. To be noted: SP6.5, 0, 30 and 100 μM zeaxanthin, 48 hr, 24-well plates. On the procedure: FIGS. 2A, 2B and 2C illustrate the phase-contrast photomicrographs of uveal melanoma cells which have been treated with three different concentrations of zeaxanthin. Uveal melanoma cells (SP6.5 cell line) were seeded into 24-well plates and treated with zeaxanthin at 0 μM (2A), 30 μM (2B), and 100 μM (2C) levels for 48 hr.
Viability of cells treated with zeaxanthin was also visualized in the following tests. In these tests, the same amount of uveal melanoma cells were cultured and treated with zeaxanthin at different concentrations, and the treated cells were examined under microscope. Specifically, the uveal melanoma cell line SP6.5 was seeded into 24-well plates and treated with zeaxanthin at final concentrations of 0 μM, 30 μM, and 100 μM for 48 hr. […] The number of cells alive in FIG. 2A is more than that in FIG. 2B, which in turn is more than that in FIG. 2C.

Series [3] has as its system uveal melanoma cells (SP6.5). Briefly: Annexin V-FITC staining apoptosis analysis. On the procedure: FIG. 3 illustrates the fluorescence photomicrograph of pro-apoptotic effects of zeaxanthin on uveal melanoma cells after annexin V-FTIC staining. Melanoma cells (SP6.5 cell line) were treated by zeaxanthin at a concentration of 100 μM for 24 hr, and the extent of apoptosis was determined by annexin V-FTIC staining. Cells were observed under fluorescence microscope using 492 nm and 530 nm filters for recognizing and detecting FITC.
In these tests, we measured the extent of apoptosis of cells treated with zeaxanthin by annexin V-FITC staining analysis. Specifically, uveal melanoma cells (SP6.5) were plated into 8-well plates at a density of 6×10^4 cells/well. After culturing for 24 hours, cells were treated with zeaxanthin at final concentration of 10, 30, and 100 μM for another 24 hours in a CO2 incubator at 37C. Then the culture medium was aspirated and the cells were washed with the binding buffer in preparation for annexin V-FITC staining analysis. FITC-annexin V was added into each well and the cells were stained for 15 min in the dark, followed by washing with the binding buffer. The cells were then observed under fluorescence microscope using 492 nm and 530 nm filters that facilitate FITC fluorescence detection to measure the extent of apoptosis based on the principle that cell membranes of apoptotic cells were stained bright green in color.

Take `CC1=C(/C=C/C(C)=C/C=C/C(C)=C/C=C/C=C(C)/C=C/C=C(C)/C=C/C2=C(C)C[C@@H](O)CC2(C)C)C(C)(C)C[C@H](O)C1` [zeaxanthin]: the Cell viability was 73 ± 4.6% in the series on COLO829 (COLO829, 10 μM zeaxanthin); 52 ± 2.0% in the series with COLO829 (COLO829, 30 μM zeaxanthin); 28 ± 1.2% in the series on COLO829 (COLO829, 100 μM zeaxanthin); 62 ± 3.4% in the series on HCT-15 (HCT-15, 10 μM zeaxanthin); 46 ± 2.4% in the series with HCT-15 (HCT-15, 30 μM zeaxanthin); 12 ± 1.3% in the series with HCT-15 (HCT-15, 100 μM zeaxanthin). The Cell viability in the series with SP6.5 [1] (SP6.5, 10 μM zeaxanthin) was 86 ± 4.3%; in the series on SP6.5 [1] (SP6.5, 30 μM zeaxanthin) it was 64 ± 1.7%; in the series with SP6.5 [1] (SP6.5, 100 μM zeaxanthin), 42 ± 2.2%; in the series with MDA (10 μM zeaxanthin) it was 97 ± 6.36%; with MDA (30 μM zeaxanthin) it was 95 ± 5.1%; in the series on MDA (100 μM zeaxanthin) it was 92 ± 9.2%. For the same compound, the “reduction of cell viabilities” value in the series on SP6.5 [1] (SP6.5, 10 μM zeaxanthin) is listed as “about 14%”; in the series on SP6.5 [1] (SP6.5, 30 μM zeaxanthin) it was ~36%; in the series on SP6.5 [1] (SP6.5, 100 μM zeaxanthin), ~58%. In the series with MDA (final concentration as high as 100 μM), the “decrease of cell viability after zeaxanthin treatment” value is listed as “did not see statistically significant decrease of cell viability”. Moreover, the “number of cells seen under microscope” value in the series on SP6.5 [2] is reported as “the number of cells in the culture that could be seen under microscope decreased progressively”. In addition, in series [3] (SP6.5, 100 μM zeaxanthin, 24 hr, FIG. 3), the “annexin V staining of the cell membrane (apoptotic cells)” value is on record as “numerous cells showed staining of the cell membrane with annexin V”. Further, the “extent of apoptosis (annexin V-FITC staining)” value in series [3] (SP6.5, 10, 30 and 100 μM zeaxanthin, 24 hours) is on record as “apoptosis in uveal melanoma cells induced by zeaxanthin in a dose-dependent manner”.
